T/C data for 21 compounds are collected here from PubChem BioAssay AID330 (DTP/NCI, 2004).

Values joined by “and” are separate entries in the source; they are usually repeats but may differ in a detail not shown here. Identical values can stand only once. Inconclusive results and toxic doses are left out.

The subject of this assay is P388 leukemia ip, CD2F1 mice, survival T/C. The assay can be described thus: NCI In Vivo Anticancer Drug Screen. Data for tumor model P388 Leukemia (intraperitoneal) in CD2F1 (CDF1) mice. The note with it: endpoint: median survival time, higher = longer survival. Put shortly: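 Mice carrying the transplanted tumor received test compound or vehicle. Survival was recorded in each group, and the value is the treated-group measurement divided by that of the vehicle-treated control group.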

The mark [1] stands for this setting: dose: 60.0 mg/kg/injection, schedule: Q01DX005 (ip), vehicle: Klucel (hydroxypropylcellulose) (HPC).
[2] abbreviates: dose: 12.5 mg/kg/injection, schedule: Q01DX009 (ip), vehicle: saline with Tween-80.
The mark [3] stands for this setting: dose: 25.0 mg/kg/injection, schedule: Q01DX009 (ip), vehicle: saline with Tween-80.
Where [4] appears, read: dose: 60.0 mg/kg/injection, schedule: Q01DX005 (ip), vehicle: saline with Tween-80.
[5] abbreviates: dose: 120.0 mg/kg/injection, schedule: Q01DX005 (ip), vehicle: saline with Tween-80.
[6] abbreviates: dose: 240.0 mg/kg/injection, schedule: Q01DX005 (ip), vehicle: saline with Tween-80.
Setting [7] is: dose: 50.0 mg/kg/injection, schedule: Q01DX009 (ip), vehicle: saline with Tween-80.
The mark [8] stands for this setting: dose: 50.0 mg/kg/injection, schedule: Q01DX005 (ip), vehicle: Klucel (hydroxypropylcellulose) (HPC).
The mark [9] stands for this setting: dose: 100.0 mg/kg/injection, schedule: Q01DX005 (ip), vehicle: Klucel (hydroxypropylcellulose) (HPC).
[10] abbreviates: dose: 200.0 mg/kg/injection, schedule: Q01DX005 (ip), vehicle: Klucel (hydroxypropylcellulose) (HPC).
The mark [11] stands for this setting: dose: 12.5 mg/kg/injection, schedule: Q01DX005 (ip), vehicle: Klucel (hydroxypropylcellulose) (HPC).
[12] abbreviates: dose: 25.0 mg/kg/injection, schedule: Q01DX005 (ip), vehicle: Klucel (hydroxypropylcellulose) (HPC).
Setting [13] is: dose: 100.0 mg/kg/injection, schedule: Q01DX005 (ip), vehicle: saline with Tween-80.
[14] abbreviates: dose: 200.0 mg/kg/injection, schedule: Q01DX005 (ip), vehicle: saline with Tween-80.

With `N#C/C(=N\Nc1ccc(Cl)cc1)C(=O)C1CC1`, the T/C is 105 % of control (dose: 15.0 mg/kg/injection, schedule: Q01DX005 (ip), vehicle: Klucel (hydroxypropylcellulose) (HPC)); 98 % of control (dose: 30.0 mg/kg/injection, schedule: Q01DX005 (ip), vehicle: Klucel (hydroxypropylcellulose) (HPC)); 99 % of control and 91 % of control under setting [1].
As to `[Co].[NH-]CC[NH-].[NH-]CC[NH-].[NH-]CC[NH-]`, the T/C reads like this: (dose: 25.0 mg/kg/injection, schedule: Q01DX009 (ip), vehicle: saline) 100 % of control; (dose: 50.0 mg/kg/injection, schedule: Q01DX009 (ip), vehicle: saline) 111 % of control; (dose: 50.0 mg/kg/injection, schedule: Q04DX002 (ip), vehicle: saline with Tween-80) 100 % of control; (dose: 100.0 mg/kg/injection, schedule: Q01DX009 (ip), vehicle: saline) 105 % of control; (dose: 100.0 mg/kg/injection, schedule: Q04DX002 (ip), vehicle: saline with Tween-80) 102 % of control; (dose: 200.0 mg/kg/injection, schedule: Q04DX002 (ip), vehicle: saline with Tween-80) 106 % of control.
Take `COc1cc(C=Nc2cccc(Br)c2)ccc1N(CCCl)CCCl`: the T/C (dose: 3.3 mg/kg/injection, schedule: Q01DX009 (ip), vehicle: saline with Tween-80) is 154 % of control; the T/C (dose: 5.0 mg/kg/injection, schedule: Q01DX009 (ip), vehicle: saline with Tween-80) is 200 % of control; the T/C (dose: 5.56 mg/kg/injection, schedule: Q01DX009 (ip), vehicle: saline with Tween-80) is 209 % of control; the T/C (dose: 8.33 mg/kg/injection, schedule: Q01DX009 (ip), vehicle: saline with Tween-80) was 186 % of control; the T/C (dose: 11.0 mg/kg/injection, schedule: Q04DX003 (ip), vehicle: other) was 165 % of control; the T/C under setting [2] was 204 % of control and 227 % of control. The T/C reads like this: (dose: 16.5 mg/kg/injection, schedule: Q04DX003 (ip), vehicle: other) 184 % of control; (dose: 18.7 mg/kg/injection, schedule: Q01DX009 (ip), vehicle: saline with Tween-80) 186 % of control; under setting [3], 166 % of control; (dose: 25.0 mg/kg/injection, schedule: Q04DX003 (ip), vehicle: other) 230 % of control; (dose: 37.5 mg/kg/injection, schedule: Q04DX003 (ip), vehicle: other) 107 % of control.
For `Cc1c2c(=O)oc3ccc(Cl)cc3c2nn1-c1ccccc1`, the T/C reads like this: under setting [1], 96 % of control; (dose: 120.0 mg/kg/injection, schedule: Q01DX005 (ip), vehicle: Klucel (hydroxypropylcellulose) (HPC)) 93 % of control.
With `Cc1[nH]c2c(-c3ccccc3)c3cc(Cl)ccc3nc2c1C(=O)O`, the T/C was 92 % of control (dose: 25.0 mg/kg/injection, schedule: Q01DX009 (ip), vehicle: Klucel (hydroxypropylcellulose) (HPC)); 89 % of control (dose: 50.0 mg/kg/injection, schedule: Q01DX009 (ip), vehicle: Klucel (hydroxypropylcellulose) (HPC)); 86 % of control (dose: 100.0 mg/kg/injection, schedule: Q01DX009 (ip), vehicle: Klucel (hydroxypropylcellulose) (HPC)).
With `O=C1CCC(=O)N(CNc2cccc(Cc3cccc(NCN4CC(=O)CCC4=O)c3)c2)C1`, the T/C reads like this: under setting [4], 91 % of control; under setting [5], 91 % of control; under setting [6], 89 % of control.
As to `CCOC(=O)CN=Cc1ccccc1`, the T/C is 107 % of control under setting [4], 108 % of control under setting [5] and 107 % of control under setting [6].
Turning to `COC(=O)c1cc2c(C(=O)OC)cc1CSCc1cccc(c1)CSC2`, the T/C (dose: 12.5 mg/kg/injection, schedule: Q01DX009 (ip), vehicle: suspension in saline) was 90 % of control; the T/C (dose: 25.0 mg/kg/injection, schedule: Q01DX009 (ip), vehicle: suspension in saline) was 87 % of control; the T/C (dose: 50.0 mg/kg/injection, schedule: Q01DX009 (ip), vehicle: suspension in saline) was 97 % of control.
As for `CC(=O)c1cc(-c2ccccn2)c(=O)n2ccccc12`, the T/C is, setting by setting: under setting [2], 105 % of control; under setting [3], 99 % of control; under setting [7], 100 % of control and 87 % of control.
`COc1ccc(NS(=O)(=O)c2ccc(N=Cc3c4ccccc4nc4cc(Cl)ccc34)cc2)nn1`: the T/C is, setting by setting: under setting [4], 91 % of control; under setting [5], 90 % of control; under setting [6], 87 % of control.
Turning to `COc1ccc(/C=C2/N=C(c3ccc(Cl)c(Cl)c3)OC2=O)cc1OC`, the T/C was 90 % of control under setting [8], 88 % of control under setting [9] and 94 % of control under setting [10].
Consider `Cc1cc(N/N=C/c2ccc([N+](=O)[O-])cc2)c2cc3c(cc2n1)OCO3`, for which the T/C by setting is: under setting [11], 100 % of control; under setting [12], 102 % of control; under setting [8], 101 % of control and 104 % of control.
In the case of `COC(=O)c1[nH]c(=O)[nH]c(=O)c1F`, the T/C was 118 % of control (dose: 8.0 mg/kg/injection, schedule: Q01DX009 (ip), vehicle: saline with Tween-80); 104 % of control (dose: 16.0 mg/kg/injection, schedule: Q01DX009 (ip), vehicle: saline with Tween-80); 110 % of control (dose: 22.0 mg/kg/injection, schedule: Q04DX003 (ip), vehicle: saline with Tween-80); 100 % of control under setting [3]; 100 % of control under setting [7]; 155 % of control (dose: 50.0 mg/kg/injection, schedule: Q04DX003 (ip), vehicle: saline with Tween-80). In addition, under “dose: 100.0 mg/kg/injection, schedule: Q01DX009 (ip), vehicle: saline with Tween-80”, the T/C was 90 % of control.
In the case of `O=C(c1cc(Nc2ccnc3cc(Cl)ccc23)ccc1O)N1CCCCC1`, the T/C is, setting by setting: under setting [13], 120 % of control; under setting [14], 121 % of control.
Consider `O=C(O)CCSSCCCCCS(=O)O`, for which the T/C by setting is: (dose: 50.0 mg/kg/injection, schedule: Q01DX005 (ip), vehicle: saline) 100 % of control; (dose: 100.0 mg/kg/injection, schedule: Q01DX005 (ip), vehicle: saline) 104 % of control; (dose: 200.0 mg/kg/injection, schedule: Q01DX005 (ip), vehicle: saline) 104 % of control.
`O=C(O)c1ccccc1NCc1ccco1`: the T/C (dose: 50.0 mg/kg/injection, schedule: Q01DX005 (ip), vehicle: saline with Tween-80) was 91 % of control; the T/C under setting [13] was 96 % of control; the T/C under setting [14] is 89 % of control.
In the case of `C1CN1c1nnc(N2CC2)nn1`, the T/C reads like this: (dose: 7.5 mg/kg/injection, schedule: Q01DX005 (ip), vehicle: saline) 178 % of control; (dose: 30.0 mg/kg/injection, schedule: Q01DX005 (ip), vehicle: saline) 260 % of control.
Consider `CCOC(=O)/C=C1\COc2nc(N)[nH]c(=O)c2N1`, for which the T/C reads like this: under setting [11], 93 % of control; under setting [12], 91 % of control; under setting [8], 89 % of control; under setting [9], 94 % of control; under setting [10], 91 % of control.
For `CCN(CC)c1ccc(NC(C(=O)c2ccccc2)c2ccccc2)cc1` (stereo unspecified), the T/C is 104 % of control and 109 % of control (dose: 3.12 mg/kg/injection, schedule: Q01DX005 (ip), vehicle: Klucel (hydroxypropylcellulose) (HPC)); 103 % of control and 109 % of control and 96 % of control (dose: 6.25 mg/kg/injection, schedule: Q01DX005 (ip), vehicle: Klucel (hydroxypropylcellulose) (HPC)); 104 % of control and 121 % of control and 96 % of control under setting [11]; 112 % of control and 95 % of control under setting [12].
`O=C(O)c1c[nH]c2cc(OCc3ccc(F)cc3)ccc2c1=O`: the T/C is 88 % of control (dose: 100.0 mg/kg/injection, schedule: Q04DX003 (ip), vehicle: saline); 93 % of control (dose: 200.0 mg/kg/injection, schedule: Q04DX003 (ip), vehicle: saline); 90 % of control (dose: 400.0 mg/kg/injection, schedule: Q04DX003 (ip), vehicle: saline).
Consider `NCCOc1c2occc2cc2ccc(=O)oc12`, for which the T/C (dose: 100.0 mg/kg/injection, schedule: Q01DX001 (ip), vehicle: saline) is 110 % of control.
